Assay results published in ChEMBL document CHEMBL4321865, “Discovery of Novel Inhibitors of LpxC Displaying Potent in Vitro Activity against Gram-Negative Bacteria” (J Med Chem, 2020).
Converted amounts (≈) assume the structure as drawn.

Columns and labels:
[1] = test system: T1, UDP-3-O-acyl-N-acetylglucosamine deacetylase (Escherichia coli K-12), P0A725 [C125S]
T1 sequence (whole entry): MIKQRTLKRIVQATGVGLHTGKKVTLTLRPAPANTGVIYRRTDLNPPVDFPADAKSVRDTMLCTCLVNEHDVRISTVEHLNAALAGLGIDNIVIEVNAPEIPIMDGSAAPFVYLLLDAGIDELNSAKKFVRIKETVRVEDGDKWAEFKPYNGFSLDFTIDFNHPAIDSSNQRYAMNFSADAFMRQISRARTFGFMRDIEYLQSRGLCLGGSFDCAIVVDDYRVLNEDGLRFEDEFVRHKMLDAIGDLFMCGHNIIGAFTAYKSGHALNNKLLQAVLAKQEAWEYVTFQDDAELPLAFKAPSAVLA

[2] = test system: T2, UDP-3-O-acyl-N-acetylglucosamine deacetylase (Pseudomonas aeruginosa (strain ATCC 15692 / PAO1 / 1C / PRS 101 / LMG12228)), P47205 [C40S]
T2 sequence (whole entry): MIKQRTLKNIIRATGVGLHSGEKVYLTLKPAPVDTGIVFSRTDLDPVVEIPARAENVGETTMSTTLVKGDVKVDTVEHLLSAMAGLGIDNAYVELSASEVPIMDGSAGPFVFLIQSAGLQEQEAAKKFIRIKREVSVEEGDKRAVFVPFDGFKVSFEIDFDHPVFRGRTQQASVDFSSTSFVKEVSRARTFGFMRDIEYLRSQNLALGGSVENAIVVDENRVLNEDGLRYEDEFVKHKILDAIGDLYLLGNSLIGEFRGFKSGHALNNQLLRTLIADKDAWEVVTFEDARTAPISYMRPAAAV

physchem [3] = conditions: n-octanol/phosphate buffered saline, pH 7.4
Description: n-Octanol/phosphate buffered saline partition coefficient, log D of the compound at pH 7.4 by LC-UV method

physchem [4] = conditions: DMSO, pH 7
Description: Solubility of the compound in DMSO at pH 7 incubated for 24 hrs by LC-UV method

physchem [5] = conditions: DMSO, pH 9
Description: Solubility of the compound in DMSO at pH 9 incubated for 24 hrs by LC-UV method

physchem [6] = conditions: DMSO, pH 4
Description: Solubility of the compound in DMSO at pH 4 incubated for 24 hrs by LC-UV method

Escherichia coli = test: microbe, parasite or virus in culture; conditions: ATCC 25922
Description: Antibacterial activity against wild-type Escherichia coli ATCC 25922 by broth microdilution method

Klebsiella pneumoniae = test: microbe, parasite or virus in culture; conditions: T 6474
Description: Antibacterial activity against multi-drug resistant Klebsiella pneumoniae T 6474 by broth microdilution method

Pseudomonas aeruginosa [7] = test: microbe, parasite or virus in culture; conditions: ATCC 27853
Description: Antimicrobial activity against Pseudomonas aeruginosa ATCC 27853 by broth microdilution method

Pseudomonas aeruginosa [8] = test: microbe, parasite or virus in culture; conditions: PAO1
Description: Antimicrobial activity against wild-type Pseudomonas aeruginosa PAO1 by broth microdilution method

Row | Structure (SMILES) | ΔTm [1] [°C] | ΔTm [2] [°C] | logD (physchem [3]) | solubility at 24 h (physchem [4]) [µg/mL] | solubility at 24 h (physchem [5]) [µg/mL] | solubility at 24 h (physchem [6]) [µg/mL] | MIC (Escherichia coli) [µg/mL] | MIC (Klebsiella pneumoniae) [µg/mL] | MIC (Pseudomonas aeruginosa [7]) [µg/mL] | MIC (Pseudomonas aeruginosa [8]) [µg/mL]
1 | C[C@@](CCN1Cc2cc(C#CC#CC3(N)CC3)sc2C1=O)(C(=O)NO)S(C)(=O)=O.Cl | 10 | 12.5 | 1 | 207 | > 740 | > 740 | 0.25 | 0.5 | 1 | 1
2 | C[C@@](CCN1Cc2cc(C#CC#C[C@@H]3C[C@H]3CO)cn2C1=O)(C(=O)NO)S(C)(=O)=O | 10.8 | 13.6 | – | – | – | 600 (≈ 1380 µM) | 0.12 (≈ 0.277 µM) | 0.25 (≈ 0.577 µM) | 0.5 (≈ 1.15 µM) | 0.5 (≈ 1.15 µM)
3 | CC(C)(O)C#CC#Cc1cc2n(c1)C(=O)N(CC[C@](C)(C(=O)NO)S(C)(=O)=O)C2 | 9.9 | 12.3 | 0.9 | > 710 | > 710 | 398 (≈ 944 µM) | 0.5 (≈ 1.19 µM) | 1 (≈ 2.37 µM) | 1 (≈ 2.37 µM) | 2 (≈ 4.75 µM)
4 | C[C@@](CCN1Cc2cc(C#Cc3ccc(CNS(C)(=O)=O)cc3)cn2C1=O)(C(=O)NO)S(C)(=O)=O | 11.2 | 13.2 | 1 | 3 (≈ 5.74 µM) | 56 (≈ 107 µM) | 1 (≈ 1.91 µM) | 0.25 (≈ 0.478 µM) | 0.5 (≈ 0.957 µM) | 1 (≈ 1.91 µM) | 1 (≈ 1.91 µM)
5 | C[C@@](CCN1Cc2cc(C#CC#CCOC(=O)N3CCC(O)CC3)cn2C1=O)(C(=O)NO)S(C)(=O)=O | 9.4 | 12.9 | 0.9 | 785 (≈ 1510 µM) | > 880 | 641 (≈ 1230 µM) | 0.5 (≈ 0.96 µM) | 1 (≈ 1.92 µM) | 2 (≈ 3.84 µM) | 2 (≈ 3.84 µM)
6 | C[C@@](CCN1Cc2cc(C#CC#C[C@@H]3C[C@H]3CO)sc2C1=O)(C(=O)NO)S(C)(=O)=O | 11.2 | 15 | 1.3 | 377 (≈ 837 µM) | 380 (≈ 843 µM) | 464 (≈ 1030 µM) | 0.12 (≈ 0.266 µM) | 0.25 (≈ 0.555 µM) | 0.5 (≈ 1.11 µM) | 0.5 (≈ 1.11 µM)
7 | CC(C)(O)C#CC#Cc1cc2c(s1)C(=O)N(CC[C@](C)(C(=O)NO)S(C)(=O)=O)C2 | 9.9 | 13.6 | 1.2 | > 740 | > 740 | > 740 | 0.5 (≈ 1.14 µM) | 2 (≈ 4.56 µM) | 1 (≈ 2.28 µM) | 2 (≈ 4.56 µM)
8 | CC(C)(O)c1ccc(C#Cc2cc3c(s2)C(=O)N(CC[C@](C)(C(=O)NO)S(C)(=O)=O)C3)cc1 | 13 | 15.5 | 2.1 | 83 (≈ 169 µM) | 613 (≈ 1250 µM) | 69 (≈ 141 µM) | 0.12 (≈ 0.245 µM) | 0.25 (≈ 0.51 µM) | 0.5 (≈ 1.02 µM) | 1 (≈ 2.04 µM)
9 | C[C@@](CCN1Cc2cc(C#CC#CC3(O)COC3)ccc2C1=O)(C(=O)NO)S(C)(=O)=O | 7 | 11.6 | – | – | – | – | 16 (≈ 35.8 µM) | 8 (≈ 17.9 µM) | 8 (≈ 17.9 µM) | 4 (≈ 8.96 µM)
10 | CC(C)(O)C#CC#Cc1ccc2c(c1)CN(CC[C@](C)(C(=O)NO)S(C)(=O)=O)C2=O | 8.5 | 12.6 | 1.2 | 97 (≈ 224 µM) | 564 (≈ 1300 µM) | 71 (≈ 164 µM) | 1 (≈ 2.31 µM) | 2 (≈ 4.62 µM) | 2 (≈ 4.62 µM) | 2 (≈ 4.62 µM)
11 | C[C@@](CCN1Cc2cc(C#Cc3ccc(CN4CCOCC4)cc3)cn2C1=O)(C(=O)NO)S(C)(=O)=O | 11.9 | 13.6 to 13.9 | 1.6 | 68 (≈ 132 µM) | 621 (≈ 1210 µM) | 802 (≈ 1560 µM) | – | 0.25 (≈ 0.486 µM) | 1 (≈ 1.94 µM) | 1 (≈ 1.94 µM)
12 | C[C@@](CCN1Cc2cc(C#CC#CC3(O)COC3)sc2C1=O)(C(=O)NO)S(C)(=O)=O | 7.4 | 12.2 | 0.5 | > 760 | > 760 | > 760 | 2 (≈ 4.42 µM) | 4 (≈ 8.84 µM) | 4 (≈ 8.84 µM) | 4 (≈ 8.84 µM)
